Data published in US10328062B2, “Biomarkers and use of MET inhibitor for treatment of cancer” (AMGEN, INC., priority 2014, dated 2019).

Key:
TPR-MET xenografts = test: animal or person
Procedure: Nude mice bearing established TPR-MET xenografts were treated with Compound Mat doses of 0.1, 0.5, 0.75, 1, 2, 3, or 10 mg/kg. Three hours post dose, tumors were excised and flash frozen in liquid nitrogen. Tumors were then homogenized in lysis buffer containing protease and phosphatase inhibitors. Lysates were then processed per the SDS-PAGE and Immunoblotting protocol.
Tumors were harvested 3 hours post dose and tumor lysates prepared for analysis by SDS-PAGE and immunoblot using antibodies to phospho-Gab1 and β-actin. Phospho-Gab1 levels were quantified using a chemiluminescent imaging system.

human HCC cell lines = test: HCC cell proliferation assay (CellTiter-Glo, 72 h); type: cell-based
Procedure: All human HCC cell lines were purchased from the American Type Culture Collection (ATCC), Japanese Collection of Research Bioresources (JCRB), Korean Cell line Bank (KCLB), Shanghai Institutes of Biological Sciences (SIBS), Zhongshan Hospital Fudan University (ZHFU), and routinely cultured in 96-well plates in ATCC's recommended growth media in the temperature of 37° C., 5% CO2 and 95% humidity. […] Luminescence was measured with a PerkinElmer EnVision® plate reader. Data will not be normalized to a control compound, rather POC (percent of control). POC=(compound treated signal/DMSO treated signal)*100. POC values were processed with the software of GraphPad Prism version 5 to calculate the absolute IC50. Time 0 (T0) reported as broken line on dose response curves were shown in the curve fitting as the percent of the net T3 DMSO control.
The fluorescence in situ hybridization (FISH) analysis and immunohistochemistry (IHC) staining were used to confirm c-MET amplification and high protein expression. The six sensitive and non-sensitive cell lines were selected, including MHCC97H, HCCLM3, JHH-4, JHH-5, SNU-398 and Hep3B. MHCC97H and HCCLM3 cell lines also had high levels of total MET with strong membrane staining (IHC 3+) and MET gene amplification (MET/CEP7>2.0), which were identified as Met-positive HCC. […]

SNU-5 cells = test: Immunoblot analysis of apoptotic markers; type: cell-based, Human; conditions: 30 nM, 24 hours
Procedure: (§1) Cells were seeded in 10 cm dishes at varying densities and allowed to adhere by incubating at 37° C. and 5% CO2 overnight. […] Cells were harvested in 250 μL lysis buffer containing protease and phosphatase inhibitors. For suspension cell lines, cells were pelleted prior to lysis buffer addition. Protein concentrations for individual lysates were measured using a BCA protein assay. 25 μg of protein lysate per sample was resolved on Life Technologies (Carlsbad, Calif.) NuPAGE Bis-Tris gels per manufacturer's. Samples were transferred to nitrocellulose membranes for Western blot analysis. Membranes were blocked in 5% milk prepared in TBST for 1 hour at room temperature. Total and phospho-specific antibodies for specified endpoints were used at 1:1000 dilutions in 5% milk/TBST (total) or 5% BSA/TBST (phospho). Membranes were incubated in the presence of appropriate primary antibody overnight at 4° C. Secondary anti-species-IgG HRP conjugated antibodies were diluted 1:5000 in 5% milk/TBST and incubated in the presence of membranes for 1 hour at room temperature. Membranes were exposed to Thermo Scientific (Waltham, Mass.) Super Signal PICO West ECL detection reagent per manufacturer's recommended protocol and exposed to film to document signal.
(§2) Antibodies detecting total and phospho-MET (Y1234/1235), phospho-Gab1 (Y627), total and phospho-AKT (S473), total and phospho-ERK (T202/Y204), cleaved caspase-3, and cleaved PARP were purchased from Cell Signaling Technologies (Beverly, Mass.). The total β-actin antibody was purchased from Thermo Scientific (Waltham, Mass.). Both secondary anti-rabbit and anti-mouse IgG-HRP conjugated antibodies were purchased from Thermo Scientific (Waltham, Mass.).
(§3) Flow cytometry cell cycle analysis of MET amplified gastric cancer cell line MKN-45 is represented in FIG. 6. […] BrdU labeling was performed during the final 2 hours of compound treatment. […] Cells were then analyzed by flow cytometry to document effects on the cell cycle. […] Subsequent lysates were analyzed by SDS-PAGE and immunoblot using antibodies detecting cleaved PARP, cleaved caspase-3 and β-actin.

SNU-620 cells = test: Immunoblot analysis of apoptotic markers; type: cell-based, Human; conditions: 30 nM, 24 hours
Procedure: as §1, §2, §3

MKN-45 cells = test: Immunoblot analysis of apoptotic markers; type: cell-based, Human; conditions: 30 nM, 24 hours
Procedure: as §1, §2, §3

AU-565 = test: 72 hour cancer cell line viability assay (CellTiter-Glo); type: cell-based; conditions: Homo sapiens, AU565; AU-565, Breast; MET copy number Low, focal No; 72 hour viability
Procedure: (§4) Human cancer cell lines were purchased from ATCC, JCRB, Sigma Aldrich or DSMZ. All cell lines were propagated in growth media per the suppliers' recommendation and maintained in 5% CO2 and 37° C.
(§5) Cancer cell line viability assays were carried out using the CellTiter-Glo Luminescent Cell Viability Assay from Promega (Madison, Wis.). Optimal cell seeding densities were determined using time lapse imaging to maximize signal window and ensure cells were not contact growth inhibited at the 72 hour time point. Cells were seeded in 96 well plates in complete growth media and allowed to adhere to the bottom of the plate by incubation at 37° C. and 5% CO2 overnight. […] Plates were incubated at 37° C. and 5% CO2 for 72 hours. Treated plates were then allowed to equilibrate to room temperature along with, CellTiter-Glo substrate and buffer solution prior to use in the viability assay. CellTiter-Glo substrate vials were reconstituted in 10 mL of buffer solution and added to assay plates in 100 μL/well volumes. Plates were shaken for 2 minutes at 700 rotations per minute with an orbit diameter of 3 mm followed by room temperature incubation for 10 minutes. Plates were then read using an Envision plate reader on luminescent setting.
(§6) Threshold for high vs low MET copy number was set at aCGH log 2 ratio of 2.5. Focal nature of MET copy number increase was defined qualitatively using tiled aCGH results for chromosome 7.

C32 = test: as above; type: cell-based; conditions: Homo sapiens; C32, Melanoma; MET copy number Low, focal No; 72 hour viability
Procedure: as §4, §5, §6

Malme-3M = test: as above; type: cell-based; conditions: Homo sapiens, Melanoma, MET copy number Low, focal No, 72 hour viability
Procedure: as §4, §5, §6

OE33 = test: as above; type: cell-based; conditions: Homo sapiens; OE33, Esophagus; MET copy number High, focal Yes; 72 hour viability
Procedure: as §4, §5, §6

Structure (SMILES): COCCOc1cnc2ccn([C@H](C)c3nnc4c(F)cc(-c5cnn(C)c5)cn34)c(=O)c2c1 [Compound M, 6-{(1R)-1-[8-fluoro-6-(1-methyl-1H-pyrazol-4-yl)[1,2,4]triazolo[4,3-a]pyridin-3-yl]ethyl}-3-(2-methoxyethoxy)-1,6-naphthyridin-5(6H)-one]
- inhibition at 1 mg/kg (TPR-MET xenografts; Mus musculus, 3 h, read-out: inhibition of phospho-Gab1): > 90%
- average exposure shown to inhibit c-Met activity by 90% (TPR-MET xenografts; TPR-Met xenograft model): 0.154 µg/mL
- drug sensitivity (human HCC cell lines; HCC cell lines with total c-MET IHC 2+, 1+ or 0): did not show dramatic drug sensitivity
- response to Compound M (human HCC cell lines; Met-positive HCC (MHCC97H, HCCLM3: IHC 3+, MET/CEP7>2.0)): significant and favorable response
- cleaved PARP and cleaved caspase-3 levels (SNU-5 cells): clear induction of both cleaved PARP and cleaved caspase-3
- cleaved PARP and cleaved caspase-3 levels (SNU-620 cells): elevated cleaved PARP and cleaved caspase-3 levels
- cleaved PARP and cleaved caspase-3 levels (MKN-45 cells): No induction of cleaved PARP or cleaved caspase-3
- IC50 (AU-565): > 3000 nM
- IC50 (C32): > 3000 nM
- IC50 (Malme-3M): > 3000 nM
- IC50 (OE33): 3 nM
